Test systems include DMS 114 small cell lung; DMS 273 small cell lung; HOP-18 NSCLC; KM20L2 colon; M19-MEL melanoma; P388 leukemia; P388/ADR leukemia; SN12K1 renal.
Holding throughout (assay): NCI tumour cell line growth inhibition, 48 h

Structures are written as SMILES.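 Growth conditions: 96-well plates. Treatment: test compound, 48 hours, 5 concentrations. Analysis: linear interpolation between bracketing concentrations; unreached endpoints set to highest concentration. The concentration for full growth arrest is given as TGI.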 A value given as a limit tells only on which side of the number the result lay.

Here are results for 4 compounds from PubChem BioAssay (NCI).

Regarding `CCS(=O)(=O)Nc1ccc(Nc2c3ccccc3nc3ccccc23)c(OC)c1`, the TGI worked out at 5.53 µM with DMS 114 small cell lung; 1.85 µM in the test with DMS 273 small cell lung; 7.92 µM with HOP-18 NSCLC; 6.44 µM in the test on KM20L2 colon; 16.6 µM in the test on M19-MEL melanoma; 0.214 µM with P388 leukemia. Moreover, the TGI with P388/ADR leukemia is 1.53 µM; in the test on SN12K1 renal, 4.11 µM.

As for `ONc1ncnc2nc[nH]c12`, the TGI in the test with DMS 114 small cell lung, with DMS 273 small cell lung, with KM20L2 colon and in the test with M19-MEL melanoma was greater than 100 µM each time.

Take `CCOC(=O)c1nc2ccc(Cl)cc2c2c1Cc1ccccc1-2`: the TGI in the test on DMS 273 small cell lung, in the test on HOP-18 NSCLC, in the test on KM20L2 colon and in the test with M19-MEL melanoma was greater than 100 µM each time.

Turning to `Cc1nc(N)nc(N)c1-c1ccc(Cl)c(Cl)c1`, the TGI in the test with DMS 114 small cell lung, in the test on DMS 273 small cell lung, with HOP-18 NSCLC, in the test on KM20L2 colon and in the test on M19-MEL melanoma was greater than 100 µM in each case.
